Assay results: ChEMBL document CHEMBL1149530, “Design and synthesis of a new, conformationally constrained, macrocyclic small-molecule inhibitor of STAT3 via 'click chemistry'” (Bioorg Med Chem Lett, 2007)
Where a SMILES comes first, the peptide text is derived from it. Bridges are numbered along the chain shown (N, C = ends). Triazole bridges read from a SMILES are 1,4-linked. [ ]: non-standard residue; d: D form. pY = N[C@@H](Cc1ccc(OP(=O)(O)O)cc1)C(=O)O; Lys(N3) = [N-]=[N+]=NCCCC[C@H](N)C(=O)O; Pra = C#CC[C@H](N)C(=O)O

Target: Signal transducer and activator of transcription 3 (Homo sapiens, UniProt P40763)
Assay: Binding affinity to recombinant STAT3 by fluorescence polarization based binding assay

Chain of Signal transducer and activator of transcription 3 (P40763 whole entry): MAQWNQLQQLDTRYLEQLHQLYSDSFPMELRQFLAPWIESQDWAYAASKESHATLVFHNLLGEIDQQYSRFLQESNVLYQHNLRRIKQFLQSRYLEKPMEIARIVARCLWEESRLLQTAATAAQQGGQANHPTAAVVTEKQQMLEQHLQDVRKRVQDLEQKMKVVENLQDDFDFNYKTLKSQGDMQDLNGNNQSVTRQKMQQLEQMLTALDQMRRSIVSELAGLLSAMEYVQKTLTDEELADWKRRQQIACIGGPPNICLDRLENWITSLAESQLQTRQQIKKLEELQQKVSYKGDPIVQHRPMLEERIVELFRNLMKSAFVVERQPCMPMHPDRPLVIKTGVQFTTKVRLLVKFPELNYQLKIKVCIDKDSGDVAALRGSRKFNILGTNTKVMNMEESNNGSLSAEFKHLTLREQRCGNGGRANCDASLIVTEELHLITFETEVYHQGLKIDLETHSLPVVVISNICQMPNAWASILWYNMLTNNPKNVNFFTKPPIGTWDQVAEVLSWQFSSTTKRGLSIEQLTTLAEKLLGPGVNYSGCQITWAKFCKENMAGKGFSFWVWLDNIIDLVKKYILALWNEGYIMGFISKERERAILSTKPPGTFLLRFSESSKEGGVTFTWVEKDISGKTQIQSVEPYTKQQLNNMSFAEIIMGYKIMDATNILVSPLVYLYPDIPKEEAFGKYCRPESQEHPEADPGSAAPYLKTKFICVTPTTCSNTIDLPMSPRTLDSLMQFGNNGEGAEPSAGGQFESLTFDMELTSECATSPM

Row | Structure (SMILES) | Ki
1 | CC(=O)N[C@@H](Cc1ccc(OP(=O)(O)O)cc1)C(=O)N[C@@H](CC(C)C)C(=O)N[C@@H](CCCCN)C(=O)N[C@H](C(=O)N[C@@H](CCCCN)C(=O)N[C@@H](Cc1ccccc1)C(N)=O)[C@@H](C)O (HELM PEPTIDE1{[ac].[O=C([C@H](Cc1ccc(OP(=O)(O)O)cc1)N[*:1])[*:2]].L.K.T.K.F.[am]}$$$$V2.0) | 25.9 µM
2 | CC(=O)N[C@@H](Cc1ccc(OP(=O)(O)O)cc1)C(=O)N[C@@H](CC(C)C)C(=O)N[C@H]1CCCCn2cc(nn2)C[C@@H](C(=O)N[C@@H](Cc2ccccc2)C(N)=O)NC(=O)[C@H]([C@@H](C)O)NC1=O (Ac-[pY]L[Lys(N3)]T[Pra]F-NH2; triazole 3-5) | 7.3 µM
